Results on 9 compounds are retold here after patent publication US8722659B2, “Quinazolinedione derivatives, preparation thereof and various therapeutic uses thereof” (Sanofi, priority 2009, dated 2014).

One experiment concerns the target T1, Human PDE7 (Homo sapiens, UniProt Q13946).
T1 construct: Human PDE7 was partially purified from the cell line HUT-78; endogenous in cells; host or cells: HUT-78 (human T-cell line), partially purified enzyme preparation
Put plainly: PDE7 enzymatic test ([3H]-cAMP hydrolysis, TLC on PEI cellulose). In kind it is biochemical. As to conditions: human PDE7 partially purified from HUT-78; cAMP concentration about 4 times the Km; 10 μM rolipram present. How it is done:
(§1) The capacity of the compounds of formula (I) to inhibit PDE7 is measured by means of an enzymatic test based on separating radioactive cAMP (substrate of PDE7) from radioactive 5′-AMP (product of the enzymatic reaction) by thin-layer chromatography on polyethyleneimine (PEI) cellulose, after stopping the enzymatic reaction. The 5′-AMP is quantitatively extracted from the PEI cellulose and its radioactivity is measured using a liquid scintillation counter.
The inhibitory activity of the compounds of formula (I) on PDE7 is represented by the inhibition constant IC50, defined as the concentration of test compound (inhibitor) in the trial that can reduce the enzymatic activity of PDE7 by 50%. The lower the IC50 values, the greater the inhibitory power of the compounds.
Human PDE7 was partially purified from the cell line HUT-78 by following a method similar to that described by Bloom and Beavo (Proc. Natl. Acad. Sci. USA, (1996) 93, 14188-14192). The enzyme preparation obtained is stored at −80° C. in a buffer containing 20 mM of Tris-HCl (pH 7.0), 5 mM of MgCl2, 4 mM of EDTA, 1 mM of dithiothreitol and 20% glycerol. […] The Michaelis constant (Km) of PDE7 for cAMP, measured using the radiochemical test described hereinbelow, is 21 nM.
The compounds of formula (I) to be tested as PDE7 inhibitors are dissolved in DMSO to a concentration of 10 mM. These solutions are then serially diluted in DMSO to obtain solutions of desired concentrations. These solutions are then diluted 20-fold in the test buffer to give solutions containing 5% DMSO. These solutions are finally diluted 5-fold in the enzymatic test.
The test is performed in 1.5-ml Eppendorf tubes containing 40 mM of Tris-HCl (pH 7.5), 15 mM of MgCl2, 1 mM of EGTA, 0.5 mg/ml of bovine serum albumin, 0.25 μCi of [^3H]-cAMP (corresponding to a cAMP concentration of between 60 and 100 nM), 10 μM of rolipram and PDE7 in a final volume of 100 μl. The test is performed in the absence (control sample) or in the presence (treated sample) of compounds tested as PDE7 inhibitors. The final concentration of DMSO in the test is […]. The reaction is initiated by adding enzyme and the samples are maintained at room temperature for 30 minutes. The enzymatic dilution is adjusted so as to obtain a degree of conversion of 10% to 15%. The enzymatic reaction is stopped by immersing the stoppered Eppendorf tubes in a water bath at 100° C. for 3 minutes. Blanks (reaction stopped immediately after adding the enzyme) are included in each experiment. The samples are then centrifuged at 10 000×g for 1 minute and a 10 μl aliquot portion of the supernatant is deposited 2 cm from the bottom edge of a sheet of PEI cellulose onto which 10 μg of cAMP and 10 μg of 5′-AMP have previously been deposited. To facilitate the migration and the subsequent cutting of the PEI cellulose strips containing the 5′-AMP, 18 migration paths 1 cm wide are delimited per plate by scraping the cellulose with a spatula over a width of 1 mm. The plates are developed over their entire length with a 0.30 M solution of LiCl in water by ascending chromatography. The 5′-AMP (Rf=0.20) and the cAMP (Rf=0.47) are visualized under UV light at 254 nm. The PEI cellulose bands containing the 5′-AMP are cut out and the nucleotide is extracted quantitatively into counting flasks with 2 ml of a solution containing 16 M of formic acid and 2 M of ammonium formate in water (rotary stirring for 15 minutes). After adding 10 ml of scintillation liquid (OptiPhase HiSafe 3 from Perkin-Elmer/Wallac), the radioactivity is counted using a liquid scintillation counter (Perkin-Elmer/Wallac model 1414). Each test is performed in duplicate. The radioactivity specifically associated with the 5′-AMP formed in the enzymatic reaction is obtained by subtracting the mean value of the blanks from the mean value of the controls (or of the treated samples). […]

In experiment [1] the test system is PBMCs of normal individuals. As to conditions: cited from earlier work.
The subject of another experiment is CLL-PBMCs. As to conditions: PBMC of chronic lymphocytic leukaemia patients; cited from earlier work.
The next experiment relates to PDE8. Put plainly: PDE8 enzymatic test equivalent to that described for PDE7. In kind it is biochemical. As to conditions: at 0.1 μM. The protocol: as §1
The test is performed in 1.5-ml Eppendorf tubes containing 40 mM of Tris-HCl (pH 7.5), 15 mM of MgCl2, 1 mM of EGTA, 0.5 mg/ml of bovine serum albumin, 0.25 μCi of [^3H]-cAMP (corresponding to a cAMP concentration of between 60 and 100 nM), 10 μM of rolipram and PDE7 in a final volume of 100 μl. The test is performed in the absence (control sample) or in the presence (treated sample) of compounds tested as PDE7 inhibitors. The final concentration of DMSO in the test is 2%. […] The PEI cellulose bands containing the 5′-AMP are cut out and the nucleotide is extracted quantitatively into counting flasks with 2 ml of a solution containing 16 M of formic acid and 2 M of ammonium formate in water (rotary stirring for 15 minutes). After adding 10 ml of scintillation liquid (OptiPhase HiSafe 3 from Perkin-Elmer/Wallac), the radioactivity is counted using a liquid scintillation counter (Perkin-Elmer/Wallac model 1414). […]

SMILES strings stand for the structures.

As usually defined, the IC50 is the point on the concentration scale where inhibition reaches its midpoint. Low values mean inhibition by little substance, high ones a need for much substance.

T1 sequence (Q13946 whole entry): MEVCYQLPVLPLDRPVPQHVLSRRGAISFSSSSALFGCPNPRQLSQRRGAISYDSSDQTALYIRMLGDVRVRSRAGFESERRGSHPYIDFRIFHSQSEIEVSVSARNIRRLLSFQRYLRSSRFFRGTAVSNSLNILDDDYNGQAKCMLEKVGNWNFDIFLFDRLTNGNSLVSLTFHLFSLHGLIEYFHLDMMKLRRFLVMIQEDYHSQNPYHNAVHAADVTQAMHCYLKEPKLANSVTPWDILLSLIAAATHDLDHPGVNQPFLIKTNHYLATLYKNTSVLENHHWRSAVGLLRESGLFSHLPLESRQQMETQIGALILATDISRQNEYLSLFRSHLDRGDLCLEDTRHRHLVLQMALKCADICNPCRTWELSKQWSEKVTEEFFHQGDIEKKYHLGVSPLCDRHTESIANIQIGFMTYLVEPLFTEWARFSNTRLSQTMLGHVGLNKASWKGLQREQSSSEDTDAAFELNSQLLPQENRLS

`COc1ccc(Cn2c(=O)c3cc(OCC#N)ccc3n(C3CC[S+]([O-])CC3)c2=O)cc1OC` (single isomer, unassigned; isomer 1) [Compound 17, {[3-(3,4-dimethoxybenzyl)-1-(1-oxidotetrahydro-2H-thiopyran-4-yl)-2,4-dioxo-1,2,3,4-tetrahydroquinazolin-6-yl]oxy}acetonitrile (isomer 1)] displayed a half-maximal inhibitory concentration (IC50) at Human PDE7 of 6.1 nM.

Consider `Cc1ccc([N+](=O)[O-])cc1S(=O)(=O)N(C)C` [BRL-50481], for which, in experiment [1], the “effect on the PBMCs of normal individuals” value was “no effect”. Further, the “apoptosis of CLL-PBMCs” value in the experiment with CLL-PBMCs is on record as “induces dose-dependent apoptosis”.

On Human PDE7, `COc1ccc(Cn2c(=O)c3cc(OCC#N)ccc3n(C3CCOCC3)c2=O)cc1OC` [Compound 2, {[3-(3,4-dimethoxybenzyl)-2,4-dioxo-1-(tetrahydro-2H-pyran-4-yl)-1,2,3,4-tetrahydroquinazolin-6-yl]oxy}acetonitrile] showed an IC50 of 8.9 nM.

Compound `COc1ccc(Cn2c(=O)c3cc(OCC#N)ccc3n(C3CCOCC3)c2=O)cn1` [Compound 9, ({3-[(6-methoxypyridin-3-yl)methyl]-2,4-dioxo-1-(tetrahydro-2H-pyran-4-yl)-1,2,3,4-tetrahydroquinazolin-6-yl}oxy)acetonitrile] had an IC50 on Human PDE7 of 16 nM.

For the compound `COc1ccc(Cn2c(=O)c3cc(OCC#N)ccc3n(C3CCSCC3)c2=O)cc1OC` [Compound 11, {[3-(3,4-dimethoxybenzyl)-2,4-dioxo-1-(tetrahydro-2H-thiopyran-4-yl)-1,2,3,4-tetrahydroquinazolin-6-yl]oxy}acetonitrile], at Human PDE7, the IC50 was found to be 5.5 nM.

At Human PDE7, `COc1ccc(Cn2c(=O)c3cc(OCC#N)ccc3n(C3CCS(=O)(=O)CC3)c2=O)cc1OC` [Compound 14, {[3-(3,4-dimethoxybenzyl)-1-(1,1-dioxidotetrahydro-2H-thiopyran-4-yl)-2,4-dioxo-1,2,3,4-tetrahydroquinazolin-6-yl]oxy}acetonitrile] showed an IC50 of 230 nM.

Compound `COc1ccc(Cn2c(=O)c3cc(CO)ccc3n(C3CCOCC3)c2=O)cc1OC` [Compound 45, 3-(3,4-dimethoxybenzyl)-6-(hydroxymethyl)-1-(tetrahydro-2H-pyran-4-yl)-quinazoline-2,4(1H,3H)-dione] yielded an IC50 against Human PDE7 of 61 nM.

Compound `COc1ccc(Cn2c(=O)c3cc(CF)ccc3n(C3CCOCC3)c2=O)cc1OC` [Compound 60, 3-(3,4-dimethoxybenzyl)-6-(fluoromethyl)-1-(tetrahydro-2H-pyran-4-yl)-quinazoline-2,4(1H,3H)-dione] showed a half-inhibitory concentration (IC50) at Human PDE7 of 12 nM.

As for `COc1cc(Cn2c(=O)c3cc(OC(CF)CF)c(F)cc3n(C3CCOCC3)c2=O)ccc1OCc1ccccc1` [Compound 64, 3-[4-(benzyloxy)-3-methoxybenzyl]-6-[(1,3-difluoropropan-2-yl)oxy]-7-fluoro-1-(tetrahydro-2H-pyran-4-yl)quinazoline-2,4(1H,3H)-dione], the “inhibition of PDE8” value in the experiment with PDE8 came out at 59%.
